Data taken from PubChem BioAssay AID1963445 (Molecular Pharmacology Branch, DTP, NCI, 2024).

System: MCF7 complex spheroid growth, % test/control
Assay: Anticancer human tumor MCF7 cell line growth inhibition [Asc];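 further: spheroids exposed to compounds for 7 days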;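 on viability, T/C: 100% = DMSO vehicle control wells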
Details: for IC50: curve of first compound; for viability, T/C: stronger effect = lower value
How it was run: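 Complex solid-tumor spheroids incorporating human endothelial and mesenchymal stem cells received single agents or combinations over half-log dilution ranges anchored to clinical Cmax.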

[1] = second compound 0.0316 µM, first compound 0.0316 µM
[2] = second compound 0.0316 µM, first compound 0.1 µM
[3] = second compound 0.0316 µM, first compound 0.316 µM
[4] = second compound 0.0316 µM, first compound 1 µM
[5] = second compound 0.0316 µM, first compound 3.16 µM
[6] = second compound 0.0316 µM, first compound 10 µM
[7] = second compound 0.1 µM, first compound 0.0316 µM
[8] = second compound 0.1 µM, first compound 0.1 µM
[9] = second compound 0.1 µM, first compound 0.316 µM
[10] = second compound 0.1 µM, first compound 1 µM
[11] = second compound 0.1 µM, first compound 3.16 µM
[12] = second compound 0.1 µM, first compound 10 µM
[13] = second compound 0.316 µM, first compound 0.0316 µM
[14] = second compound 0.316 µM, first compound 0.1 µM
[15] = second compound 0.316 µM, first compound 0.316 µM
[16] = second compound 0.316 µM, first compound 1 µM
[17] = second compound 0.316 µM, first compound 3.16 µM
[18] = second compound 0.316 µM, first compound 10 µM
[19] = second compound 1 µM, first compound 0.0316 µM
[20] = second compound 1 µM, first compound 0.1 µM
[21] = second compound 1 µM, first compound 0.316 µM
[22] = second compound 1 µM, first compound 1 µM
[23] = second compound 1 µM, first compound 3.16 µM
[24] = second compound 1 µM, first compound 10 µM
[25] = second compound 3.16 µM, first compound 0.0316 µM
[26] = second compound 3.16 µM, first compound 0.1 µM
[27] = second compound 10 µM, first compound 0.0316 µM
[28] = second compound 10 µM, first compound 0.1 µM

C=CC(=O)N1CCN(c2nc(=O)n(-c3c(C)ccnc3C(C)C)c3nc(-c4c(O)cccc4F)c(F)cc23)C(C)C1 (stereo unspecified) + CNC(C)C(=O)NC1CN(S(=O)(=O)c2cccc(S(=O)(=O)N3CCC4CCC(C(=O)NC(c5ccccc5)c5ccccc5)N4C(=O)C(NC(=O)C(C)NC)C3)c2)CCC2CCC(C(=O)NC(c3ccccc3)c3ccccc3)N2C1=O
IC50 (second compound 0.00316 µM): < 0.0316 µM
IC50 (second compound 0.01 µM): < 0.0316 µM
IC50 (second compound 0.0316 µM): < 0.0316 µM
IC50 (second compound 0.1 µM): < 0.0316 µM
IC50 (second compound 0.316 µM): < 0.0316 µM
IC50 (second compound 1 µM): < 0.0316 µM
viability, T/C (second compound 0.00316 µM, first compound 0.0316 µM): 68.5%
viability, T/C (second compound 0.00316 µM, first compound 0.1 µM): 29%
viability, T/C (second compound 0.00316 µM, first compound 0.316 µM): 30.4%
viability, T/C (second compound 0.00316 µM, first compound 1 µM): 54.8%
viability, T/C (second compound 0.00316 µM, first compound 3.16 µM): 60.5%
viability, T/C (second compound 0.00316 µM, first compound 10 µM): 57.9%
viability, T/C (second compound 0.01 µM, first compound 0.0316 µM): 20.1%
viability, T/C (second compound 0.01 µM, first compound 0.1 µM): 15%
viability, T/C (second compound 0.01 µM, first compound 0.316 µM): 13.6%
viability, T/C (second compound 0.01 µM, first compound 1 µM): 16.9%
viability, T/C (second compound 0.01 µM, first compound 3.16 µM): 29.6%
viability, T/C (second compound 0.01 µM, first compound 10 µM): 46%
viability, T/C [1]: 12.7%
viability, T/C [2]: 14.4%
viability, T/C [3]: 12.5%
viability, T/C [4]: 16.3%
viability, T/C [5]: 30.7%
viability, T/C [6]: 36.6%
viability, T/C [7]: 14.1%
viability, T/C [8]: 12%
viability, T/C [9]: 16.8%
viability, T/C [10]: 16.2%
viability, T/C [11]: 20.2%
viability, T/C [12]: 33%
viability, T/C [13]: 14.5%
viability, T/C [14]: 13.5%
viability, T/C [15]: 15.2%
viability, T/C [16]: 12.1%
viability, T/C [17]: 18.6%
viability, T/C [18]: 33.7%
viability, T/C [19]: 13%
viability, T/C [20]: 12.8%
viability, T/C [21]: 11.7%
viability, T/C [22]: 14.8%
viability, T/C [23]: 16.5%
viability, T/C [24]: 28.9%

O=C(c1cc(Cc2n[nH]c(=O)c3ccccc23)ccc1F)N1CCN(C(=O)C2CC2)CC1 + Cc1c(S(C)(=O)=O)c(-c2cc(F)cc(N3CCN(c4ccc(NS(=O)(=O)c5ccc(NC(CCN6CCC(C(=O)OCCCP(=O)(O)O)CC6)CSc6ccccc6)c(S(=O)(=O)C(F)(F)F)c5)cc4)CC3)c2)c(-c2ccc(Cl)cc2)n1C(C)C
IC50 (second compound 0.0316 µM): > 10 µM
IC50 (second compound 0.1 µM): > 10 µM
IC50 (second compound 0.316 µM): > 10 µM
IC50 (second compound 1 µM): 8.02 µM
IC50 (second compound 3.16 µM): 7.13 µM
IC50 (second compound 10 µM): 8.47 µM
viability, T/C [1]: 95.8%
viability, T/C [2]: 99.9%
viability, T/C [3]: 118%
viability, T/C [4]: 95.9%
viability, T/C [5]: 80.5%
viability, T/C [6]: 54.3%
viability, T/C [7]: 117%
viability, T/C [8]: 99.8%
viability, T/C [9]: 87%
viability, T/C [10]: 99.4%
viability, T/C [11]: 84.5%
viability, T/C [12]: 57.6%
viability, T/C [13]: 117%
viability, T/C [14]: 109%
viability, T/C [15]: 101%
viability, T/C [16]: 93.7%
viability, T/C [17]: 72.8%
viability, T/C [18]: 52.5%
viability, T/C [19]: 119%
viability, T/C [20]: 107%
viability, T/C [21]: 91.9%
viability, T/C [22]: 105%
viability, T/C [23]: 88.9%
viability, T/C [24]: 40.4%
viability, T/C [25]: 108%
viability, T/C [26]: 72.5%
viability, T/C (second compound 3.16 µM, first compound 0.316 µM): 79.1%
viability, T/C (second compound 3.16 µM, first compound 1 µM): 93.6%
viability, T/C (second compound 3.16 µM, first compound 3.16 µM): 68.2%
viability, T/C (second compound 3.16 µM, first compound 10 µM): 42.4%
viability, T/C [27]: 82.6%
viability, T/C [28]: 84.4%
viability, T/C (second compound 10 µM, first compound 0.316 µM): 74.6%
viability, T/C (second compound 10 µM, first compound 1 µM): 86.9%
viability, T/C (second compound 10 µM, first compound 3.16 µM): 76.3%
viability, T/C (second compound 10 µM, first compound 10 µM): 45.4%

NC1CCC(NC2CC2c2ccccc2)CC1 (stereo unspecified) + Cc1c(S(C)(=O)=O)c(-c2cc(F)cc(N3CCN(c4ccc(NS(=O)(=O)c5ccc(NC(CCN6CCC(C(=O)OCCCP(=O)(O)O)CC6)CSc6ccccc6)c(S(=O)(=O)C(F)(F)F)c5)cc4)CC3)c2)c(-c2ccc(Cl)cc2)n1C(C)C
IC50 (second compound 0.0316 µM): > 0.1 µM
IC50 (second compound 0.1 µM): > 0.1 µM
IC50 (second compound 0.316 µM): > 0.1 µM
IC50 (second compound 1 µM): > 0.1 µM
IC50 (second compound 3.16 µM): > 0.1 µM
IC50 (second compound 10 µM): > 0.1 µM
viability, T/C (second compound 0.0316 µM, first compound 0.000316 µM): 120%
viability, T/C (second compound 0.0316 µM, first compound 0.001 µM): 93.7%
viability, T/C (second compound 0.0316 µM, first compound 0.00316 µM): 93.3%
viability, T/C (second compound 0.0316 µM, first compound 0.01 µM): 103%
viability, T/C [1]: 99.9%
viability, T/C [2]: 106%
viability, T/C (second compound 0.1 µM, first compound 0.000316 µM): 96.7%
viability, T/C (second compound 0.1 µM, first compound 0.001 µM): 106%
viability, T/C (second compound 0.1 µM, first compound 0.00316 µM): 96.3%
viability, T/C (second compound 0.1 µM, first compound 0.01 µM): 115%
viability, T/C [7]: 115%
viability, T/C [8]: 97.1%
viability, T/C (second compound 0.316 µM, first compound 0.000316 µM): 95.4%
viability, T/C (second compound 0.316 µM, first compound 0.001 µM): 87.7%
viability, T/C (second compound 0.316 µM, first compound 0.00316 µM): 113%
viability, T/C (second compound 0.316 µM, first compound 0.01 µM): 97.1%
viability, T/C [13]: 91.7%
viability, T/C [14]: 100%
viability, T/C (second compound 1 µM, first compound 0.000316 µM): 85.4%
viability, T/C (second compound 1 µM, first compound 0.001 µM): 82.6%
viability, T/C (second compound 1 µM, first compound 0.00316 µM): 95%
viability, T/C (second compound 1 µM, first compound 0.01 µM): 84.5%
viability, T/C [19]: 102%
viability, T/C [20]: 92.9%
viability, T/C (second compound 3.16 µM, first compound 0.000316 µM): 96.8%
viability, T/C (second compound 3.16 µM, first compound 0.001 µM): 83.8%
viability, T/C (second compound 3.16 µM, first compound 0.00316 µM): 87.5%
viability, T/C (second compound 3.16 µM, first compound 0.01 µM): 98.6%
viability, T/C [25]: 83.5%
viability, T/C [26]: 127%
viability, T/C (second compound 10 µM, first compound 0.000316 µM): 150%
viability, T/C (second compound 10 µM, first compound 0.001 µM): 195%
viability, T/C (second compound 10 µM, first compound 0.00316 µM): 149%
viability, T/C (second compound 10 µM, first compound 0.01 µM): 215%
viability, T/C [27]: 186%
viability, T/C [28]: 161%
